Tests used:
[1] = system: OsAMT1.1 and OsGS1.2 promoters; experiment: ChIP-PCR OsGRF4-mediated enrichment of GCGG-containing promoter fragments; format: in vivo, rice; details: treated with GA and/or PAC; FIG. 4c
From the text: Data shown as mean±s.e.m. (n=9). b, Relative root mRNA abundance in plants treated with GA and/or paclobutrazol (PAC). Data shown as mean±s.e.m. (n=3). c, Extent of ChIP-PCR OsGRF4-mediated enrichment of GCGG-containing promoter fragments from OsAMT1.1 (fragment 5) and OsGS1.2 (fragment 2) (shown in FIG. 2i) varies in response to treatment with GA and/or PAC. Data shown as mean±s.e.m. (n=3). d, BiFC assays reveal mutual interactions between SLR1, OsGRF4 and OsGIF1 in nuclei of tobacco leaf epidermal cell nuclei. Scale bar, 60 μm. e, Co-IP experiments with Flag-tagged SLR1 and HA-tagged OsGRF4 or HA-tagged OsGIF1. f, FRET images. Donor group: OsGIF1-CFP only; Acceptor group: OsGRF4-YFP only; FRET groups: OsGIF1-CFP and OsGRF4-YFP with and without SLR1. Scale bar, 200 μm. g, Mean N-FRET data for OsGIF1-CFP and OsGRF4-YFP channels. Data shown as mean±s.e.m. (n=6). […] OsGRF4-activated promotion of pOsAMT1.1 and pOsGS1.2 promoter::Luciferase fusion constructs is enhanced by OsGIF1 and inhibited by SLR1. Data shown as mean±s.e.m. (n=6). […]
˜2 g of two-week-old seedlings of transgenic p35S::flag-OsGRF4^ngr2 rice plants were fixed with 1% formaldehyde under vacuum for 15 min at 20-25° C., and then homogenized in liquid nitrogen. […] The reverse-crosslinked and precipitated DNA then served as template for quantitative RT-PCR.

[2] = system: OsAMT1.1 and OsGS1.2 mRNA; experiment: qRT-PCR relative root mRNA abundance in plants treated with GA and/or PAC; format: in vivo, rice; details: FIG. 4b
From the text: (§1) Data shown as mean±s.e.m. (n=9). b, Relative root mRNA abundance in plants treated with GA and/or paclobutrazol (PAC). Data shown as mean±s.e.m. (n=3). c, Extent of ChIP-PCR OsGRF4-mediated enrichment of GCGG-containing promoter fragments from OsAMT1.1 (fragment 5) and OsGS1.2 (fragment 2) (shown in FIG. 2i) varies in response to treatment with GA and/or PAC. Data shown as mean±s.e.m. (n=3). d, BiFC assays reveal mutual interactions between SLR1, OsGRF4 and OsGIF1 in nuclei of tobacco leaf epidermal cell nuclei. Scale bar, 60 μm. e, Co-IP experiments with Flag-tagged SLR1 and HA-tagged OsGRF4 or HA-tagged OsGIF1. f, FRET images. Donor group: OsGIF1-CFP only; Acceptor group: OsGRF4-YFP only; FRET groups: OsGIF1-CFP and OsGRF4-YFP with and without SLR1. Scale bar, 200 μm. g, Mean N-FRET data for OsGIF1-CFP and OsGRF4-YFP channels. Data shown as mean±s.e.m. (n=6). […] OsGRF4-activated promotion of pOsAMT1.1 and pOsGS1.2 promoter::Luciferase fusion constructs is enhanced by OsGIF1 and inhibited by SLR1. Data shown as mean±s.e.m. (n=6). Statistical analyses used Duncan's multiple range tests, the same lowercase letter denotes non-significant difference between means (P>0.05; panels a-c, and i).
Total RNAs were extracted from different rice plant organs using the TRIzol reagent (Invitrogen), and then treated with RNase-free DNase I (Invitrogen) according to the manufacturer's protocol. […]

OsGRF4 mRNA = OsGRF4 mRNA abundance, effect of GA and PAC; format: in vivo, rice; details: FIG. 15e, f
From the text: In the absence of GA, SLR1 inhibits OsGRF4-OsGIF1 promotion of OsGRF4 transcription. In the presence of GA, SLR1 is destroyed via proteasome-mediated degradation, this promoting OsGRF4-OsGIF1 activated OsGRF4 transcription.
Total RNAs were extracted from different rice plant organs using the TRIzol reagent (Invitrogen), and then treated with RNase-free DNase I (Invitrogen) according to the manufacturer's protocol. Full-length cDNA was then reverse-transcribed using a cDNA synthesis kit (TRANSGEN, AE311). Subsequent qRT-PCR was performed according to the manufacturer's instructions (TRANSGEN, AQ101), using three independent RNA preparations as biological replicates. Rice Actin2 gene transcripts were used as a reference.

Glutamine synthase = Glutamine synthase (GS) activity in roots and shoots of treated rice plants; format: in vivo; details: roots and shoots of 2-week-old rice plants; 100 μM GA (GA3); FIG. 13
Procedure: Data shown as mean±s.e.m. (n=3). b, GS activities in shoots of plants treated with 100 μM GA (GA3) and/or 2 μM paclobutrazol (PAC), genotypes as indicated. Data shown as mean±s.e.m. (n=3).
Glutamine synthase and nitrate reductase activities were respectively determined with the Glutamine Synthetase Kit (Solarbio LIFE SCIENCES, BC0910) and the Nitrate Reductase Kit (Solarbio LIFE SCIENCES, BC0080) following the manufacturer's instructions.

[3] = system: pOscycA1;1 and pOscdc2Os-3 promoters; experiment: Transient transactivation assay (promoter::Luciferase) in rice protoplasts; format: cell-based; details: FIG. 5f
From the text: Data shown as mean±s.e.m. (n=3). Abundances expressed relative to the level in NJ6-sd1. b, ChIP-PCR assays. Diagram depicts the OsPsbS1, OsTPS1 and OsSWEET11 promoters and regions used for ChIP-PCR. c, Transactivation assays. Data shown as mean±s.e.m. (n=9). d, Relative abundances of mRNAs transcribed from cell-cycle regulatory genes. Data shown as mean±s.e.m. (n=3). Abundances expressed relative to the level in NJ6-sd1. e, ChIP-PCR assays. Diagram depicts the OscycA1.1 and Oscdc2Os-3 promoters and regions used for Chl P-PCR. f, Transactivation assays. Data shown as mean±s.e.m. (n=12). Statistical analyses used Duncan's multiple range tests, the same lowercase letter denotes a non-significant difference between means (P>0.05).
˜3-kb DNA promoter fragments from each of OsAMT1.1, OsAMT1.2, OsGS1.2, OsGS2, OsNADH-GOGAT2, OsFd-GOGAT, OsCAB1, OsTPS1, OsSWEET11, OscycA1;1 or Oscdc2Os-3 were amplified from NJ6, and then subcloned into a pUC19 vector containing the firefly LUC reporter gene driven by the 35S minimal TATA box and 5×GAL4 binding elements, thus generating reporter plasmids containing specific promoters fused to LUC. The full-length OsGRF4 cDNA was amplified and fused to sequence encoding GAL4BD, thus generating the effector plasmid pRTBD-OsGRF4. Transient transactivation assays were performed using rice protoplasts as described elsewhere^36. […]

[4] = system: NJ6 and NJ6-sd1 rice plants; experiment: 15N uptake analysis (root 15NH4+ uptake rate) in rice plants treated with GA and/or PAC; format: in vivo; details: FIG. 4a; for 15NH4+ uptake rate: 100 μM GA (GA3) and/or 2 μM paclobutrazol (PAC)
From the text: as §1
Hydroponic culture conditions were modified from those of Liu (2004)^32. Seeds were disinfected in 20% sodium hypochlorite solution for 30 min, thoroughly washed with deionized water, and then germinated in moist Perlite. 7-day-old seedlings were then selected and transplanted to PVC pots containing 40 L+N nutrient solution (1.25 mM NH4NO3, 0.5 mM NaH2PO4·2H2O, 0.75 mM K2SO4, 1 mM CaCl2), 1.667 mM MgSO4.7H2O, 40 μM Fe-EDTA (Na), 19 μM H3BO3, 9.1 μM MnSO4·H2O, 0.15 μM ZnSO4·7H2O, 0.16 μM CuSO4, and 0.52 μM […], pH 5.5). […]
Following growth in hydroponic culture for 4 weeks, rice root ^15NO3^− and ^15NH4^+ influx measurements were as described elsewhere^37,38. […] Roots and shoots were dried overnight at 80° C., and the ^15N content was measured using the Isoprime 100 (Elementar, Germany).

Structure (SMILES) | ChIP-PCR enrichment of GCGG motif-containing fragments from the OsAMT1.1 and OsGS1.2 promoters [1] | OsAMT1.1 and OsGS1.2 mRNA abundances [2] | OsGRF4 mRNA abundance (OsGRF4 mRNA) | GS activity (Glutamine synthase) | OsGRF4-OsGIF1 complex activation of transcription from pOscycA1;1 and pOscdc2Os-3 promoters [3] | 15NH4+ uptake rate [4] | effect on the PAC-caused reduction of 15NH4+ uptake ([4]; GA together with PAC)
C=C1C[C@]23C[C@@]1(O)CC[C@H]2[C@@]12C=C[C@H](O)[C@@](C)(C(=O)O1)[C@H]2[C@@H]3C(=O)O [GA, Gibberellic acid] | promotes | increased | GA-regulated | promotes | promotes | promotes | abolishes this effect
CC(C)(C)[C@@H](O)[C@@H](Cc1ccc(Cl)cc1)n1cncn1 (racemic) [PAC, paclobutrazol] | reduces | reduced | – | – | – | reduces | –
